Test results: patent US5208223A, “Phosphocholine derivative inhibitors of phospholipase A2” (American Cyanamid Company, priority 1992, dated 1993)
Counter-ions that a name gives are not always drawn. Like-named read-outs stand apart in the source and are kept apart here.

Experiments:
Assay type in all cases: biochemical
porcine pancreatic PLA2 [1] = biological target: T1, porcine pancreatic PLA2 (Sus scrofa, UniProt P00592); assay: HPLA2 assay: in vitro porcine pancreatic phospholipase A2, preincubation design, [s]=10 μm; details: for inhibition at 10 µg/mL: dose 10 μ/ml; for inhibition at 20 µg/mL: dose 20 μ/ml; for inhibition at 50 µg/mL: dose 50 μ/ml
T1 construct: purchased Sigma
T1 sequence (P00592 23-146): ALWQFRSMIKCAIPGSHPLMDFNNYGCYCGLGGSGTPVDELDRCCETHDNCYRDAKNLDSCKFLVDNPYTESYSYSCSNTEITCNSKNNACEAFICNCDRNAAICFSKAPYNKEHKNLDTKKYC
Method: Phospholipase A2 activity was measured by a radiochemical assay in which labeled synthetic phosphatidylcholine substrate is converted by porcine pancreatic PLA2 to free radiolabeled arachidonate and lyso PC. Radiolabeled arachidonate is extracted from the reaction mixture and separated from unreacted substrate by column chromatography or TLC. Radioactivity (cpm) in samples is quantitated by liquid scintillation counting. Specific details are as follows:
Labeled substrate(1-stearyl-2-^3 H-arachidonylphosphatidylcholine; Amersham, sp. act. 84 (uCi/mmole, 0.025 to 0.2 uCi/assay tube and unlabeled substrates (Avanti), in sufficient quantity to give 20,000 cpm to 50,000 cpm and 10 μM to 1,000 μM final concentration/assay tube are dried under a stream of nitrogen. The PLA2 and mPLA2 assays utilized a […] substrate concentration. The mHPLA2 and HPLA2 assays (vida infra) utilized a 10 μM substrate concentration and the SmPLA2 assay utilized a substrate concentration ranging from 100 to 1000 μm. The substrate is then redissolved in 0.1M tris-HCl buffer, pH 9.0 containing 10 mM CaCl2 and 10 mM Na taurocholate detergent. The mixture is sonicated in a Kontes Sonifier to yield a homogeneous dispersion. The "mixed" micellar substrate is clear. An aliquot is reserved for a cpm count (total substrate). The total reaction volume is 500 μL; siliconized glassware or plasticware is used throughout. Enzyme (Sigma, sp. act.>690 U/mg protein and preferably 900 U/mg protein) is diluted 1:750 or 1:1000 in 0.1M tris-HCl buffer, pH 9.0 (without Ca^++ and detergent). Enzyme dilution depends on substrate concentration and required enzyme concentration.
The substrate in buffer is kept on ice until the reaction is started. The reaction is started by adding 10 μL of diluted enzyme solution to 490 μL of micellar substrate solution. Samples are incubated in a 37° C. water bath for 15 minutes with gentle mixing. The reaction is terminated by the addition of 100 μL of 1M fresh trichloroacetic acid (TCA) solution and chilling the tubes on ice for 30 minutes.
Samples (600 μL) are extracted with 3 ml CHCl3 /MeOH (2:1) for thin layer chromatography or in hexane/ether (9:1) for column chromatography. The phases are separated by gentle centrifugation at 700 rpm×5'. The organic phase is recovered.
Labeled arachidonate extracted with CHCl3 /MeOH is separated on silica gel G TLC plates (Analtech). Twenty μL of a 2 mg/ml internal standard solution of arachidonic acid (Sigma) is combined with 2-3 ml of the organic phase. The entire mixture is dried under nitrogen and redissolved in 50 μL of CHCl3 /MeOH (2:1). A 20 μL sample is counted in 10 ml of Beckman Redi-solv HP and spotted on silica gel G plates. […] Plates are developed in a glass chamber for 1-11/2 hours, air dried, and the spots visualized in an iodine vapor chamber. Standards of phosphatidylcholine, lyso PC, and arachidonic acid (Sigma) are made as 2 mg/ml stocks in CHCl3 /MeOH (2:1) and spotted on plates. Spots corresponding to arachidonate and phospholipid are scraped and counted in 10 ml Beckman Redi-Solv HP scintillation fluid.
Samples are extracted with hexane/ether and the upper organic phase recovered. An aliquot is applied to a Silicar CC4 (Malincrodt) column. Columns are prepared using 1 ml of a 1:1 slurry of silicar CC4 in hexane/ether in a Pasteur pipet (approx. 2 cm height). Columns are rinsed with 500 μL of hexane/ether before adding the sample (300-600 μL) to the column. Columns are eluted with a total of 6 ml of hexane/ether. The 6 ml sample is counted in 10 ml of Beckman Redi-Solv HP scintillation fluid.
or the phospholipase A2 assay, compounds are prepared as 1 mg/ml stock solutions in MeOH and diluted appropriately in PBS.

porcine pancreatic PLA2 [2] = biological target: T1, porcine pancreatic PLA2; assay: MHPLA2 assay: in vitro porcine pancreatic phospholipase A2, mixed micelle design, [s]=10 μm
How it was run: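 Compounds dried with 10 μM 1-stearyl-2-[3H]-arachidonyl-PC substrate in mixed micelles (0.1M tris-HCl pH 9.0, 10 mM CaCl2, 10 mM Na taurocholate). Reaction started by adding enzyme and run 15 min at 37°C, then stopped with TCA. Released [3H]-arachidonate separated by TLC or column and counted by scintillation.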

porcine pancreatic PLA2 [3] = biological target: T1, porcine pancreatic PLA2; assay: MPLA2 assay: in vitro porcine pancreatic phospholipase A2, mixed micelle design, substrate 2 nM
How it was run: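 Radiochemical PLA2 assay, mixed-micelle design: compound dried under N2 with 1-stearyl-2-[3H]-arachidonyl-PC substrate (2 nM) in 0.1M Tris-HCl pH 9.0, 10 mM CaCl2, 10 mM Na taurocholate. Reaction started with enzyme, 15 min at 37° C, stopped with TCA; released [3H]-arachidonate extracted, separated by TLC or column, counted by scintillation.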

porcine pancreatic PLA2 [4] = biological target: T1, porcine pancreatic PLA2; assay: PLA2 assay: in vitro porcine pancreatic phospholipase A2, preincubation of drug+enzyme, substrate 2 nM; details: preincubation, subs. con. 2
How it was run: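 Porcine pancreatic PLA2 acting on 2 nM radiolabeled arachidonyl-phosphatidylcholine in mixed micelles (0.1 M Tris-HCl pH 9.0, 10 mM CaCl2, 10 mM Na taurocholate), 15 min at 37 °C with preincubation of drug and enzyme. Stopped with TCA; released 3H-arachidonate extracted, separated by TLC or column, counted by scintillation.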

[5] = subs. con. 10, read-out: % Inh.
[6] = subs. con. 10, read-out: % Inh. Avg.

inhibition at 10 µg/mL (porcine pancreatic PLA2 [1]; [5]): 27%
inhibition at 10 µg/mL (porcine pancreatic PLA2 [1]; [6]): 22%
inhibition at 20 µg/mL (porcine pancreatic PLA2 [1]; [5]): 33%
inhibition at 20 µg/mL (porcine pancreatic PLA2 [1]; [6]): 33%
inhibition at 50 µg/mL (porcine pancreatic PLA2 [1]; [5]): 36%
inhibition at 50 µg/mL (porcine pancreatic PLA2 [1]; [6]): 42%
inhibition at 10 µg/mL (porcine pancreatic PLA2 [2]; dose 10 μ/ml, subs. con. 10, read-out: % Inh.): 3%
inhibition at 20 µg/mL (porcine pancreatic PLA2 [2]; dose 20 μ/ml, subs. con. 10): 22%
inhibition at 25 µg/mL (porcine pancreatic PLA2 [2]; dose 25 μ/ml, subs. con. 10, read-out: % Inh.): 68%
inhibition at 10 µg/mL (porcine pancreatic PLA2 [3]; dose 10 μ/ml, subs. con. 2, read-out: % Inh.): 71%
inhibition at 20 µg/mL (porcine pancreatic PLA2 [3]; dose 20 μ/ml, subs. con. 2, read-out: % Inh.): 84%
inhibition at 25 µg/mL (porcine pancreatic PLA2 [3]; dose 25 μ/ml, subs. con. 2, read-out: % Inh.): 98%
IC50 (porcine pancreatic PLA2 [3]; subs. con. 2): 3860 nM
% Inh. (porcine pancreatic PLA2 [4]; dose 10 μ/ml): 88%
inhibition at 10 µg/mL (porcine pancreatic PLA2 [4]; dose 10 μ/ml, read-out: % Inh. Avg.): 66%
inhibition at 20 µg/mL (porcine pancreatic PLA2 [4]; dose 20 μ/ml, read-out: % Inh.): 93%
IC50 (porcine pancreatic PLA2 [4]; read-out: IC50 (converted)): 1860 nM
Compound: CCCCCCCCCCCCCCCCOCC(COP(=O)([O-])OCC[N+](C)(C)C)C[S+]([O-])CCCCCCCCCCCCCCCC (centres unmarked) [7-[(Hexadecylsulfinyl)methyl]-4-hydroxy-N,N,N-trimethyl-3,5,9-trioxa-4-phosphapentacosan-1-aminium, hydroxide, inner salt, 4-oxide]
